These results are taken from patent US8962631B2 (Vertex Pharmaceuticals Incorporated, priority 2010, dated 2015).

For the first assay, the target named is T1, full-length ATR (Homo sapiens, UniProt Q13535).
T1 construct: Assays were carried out at 25° C. in the presence of 5 nM full-length ATR
T1 sequence (Q13535 whole entry): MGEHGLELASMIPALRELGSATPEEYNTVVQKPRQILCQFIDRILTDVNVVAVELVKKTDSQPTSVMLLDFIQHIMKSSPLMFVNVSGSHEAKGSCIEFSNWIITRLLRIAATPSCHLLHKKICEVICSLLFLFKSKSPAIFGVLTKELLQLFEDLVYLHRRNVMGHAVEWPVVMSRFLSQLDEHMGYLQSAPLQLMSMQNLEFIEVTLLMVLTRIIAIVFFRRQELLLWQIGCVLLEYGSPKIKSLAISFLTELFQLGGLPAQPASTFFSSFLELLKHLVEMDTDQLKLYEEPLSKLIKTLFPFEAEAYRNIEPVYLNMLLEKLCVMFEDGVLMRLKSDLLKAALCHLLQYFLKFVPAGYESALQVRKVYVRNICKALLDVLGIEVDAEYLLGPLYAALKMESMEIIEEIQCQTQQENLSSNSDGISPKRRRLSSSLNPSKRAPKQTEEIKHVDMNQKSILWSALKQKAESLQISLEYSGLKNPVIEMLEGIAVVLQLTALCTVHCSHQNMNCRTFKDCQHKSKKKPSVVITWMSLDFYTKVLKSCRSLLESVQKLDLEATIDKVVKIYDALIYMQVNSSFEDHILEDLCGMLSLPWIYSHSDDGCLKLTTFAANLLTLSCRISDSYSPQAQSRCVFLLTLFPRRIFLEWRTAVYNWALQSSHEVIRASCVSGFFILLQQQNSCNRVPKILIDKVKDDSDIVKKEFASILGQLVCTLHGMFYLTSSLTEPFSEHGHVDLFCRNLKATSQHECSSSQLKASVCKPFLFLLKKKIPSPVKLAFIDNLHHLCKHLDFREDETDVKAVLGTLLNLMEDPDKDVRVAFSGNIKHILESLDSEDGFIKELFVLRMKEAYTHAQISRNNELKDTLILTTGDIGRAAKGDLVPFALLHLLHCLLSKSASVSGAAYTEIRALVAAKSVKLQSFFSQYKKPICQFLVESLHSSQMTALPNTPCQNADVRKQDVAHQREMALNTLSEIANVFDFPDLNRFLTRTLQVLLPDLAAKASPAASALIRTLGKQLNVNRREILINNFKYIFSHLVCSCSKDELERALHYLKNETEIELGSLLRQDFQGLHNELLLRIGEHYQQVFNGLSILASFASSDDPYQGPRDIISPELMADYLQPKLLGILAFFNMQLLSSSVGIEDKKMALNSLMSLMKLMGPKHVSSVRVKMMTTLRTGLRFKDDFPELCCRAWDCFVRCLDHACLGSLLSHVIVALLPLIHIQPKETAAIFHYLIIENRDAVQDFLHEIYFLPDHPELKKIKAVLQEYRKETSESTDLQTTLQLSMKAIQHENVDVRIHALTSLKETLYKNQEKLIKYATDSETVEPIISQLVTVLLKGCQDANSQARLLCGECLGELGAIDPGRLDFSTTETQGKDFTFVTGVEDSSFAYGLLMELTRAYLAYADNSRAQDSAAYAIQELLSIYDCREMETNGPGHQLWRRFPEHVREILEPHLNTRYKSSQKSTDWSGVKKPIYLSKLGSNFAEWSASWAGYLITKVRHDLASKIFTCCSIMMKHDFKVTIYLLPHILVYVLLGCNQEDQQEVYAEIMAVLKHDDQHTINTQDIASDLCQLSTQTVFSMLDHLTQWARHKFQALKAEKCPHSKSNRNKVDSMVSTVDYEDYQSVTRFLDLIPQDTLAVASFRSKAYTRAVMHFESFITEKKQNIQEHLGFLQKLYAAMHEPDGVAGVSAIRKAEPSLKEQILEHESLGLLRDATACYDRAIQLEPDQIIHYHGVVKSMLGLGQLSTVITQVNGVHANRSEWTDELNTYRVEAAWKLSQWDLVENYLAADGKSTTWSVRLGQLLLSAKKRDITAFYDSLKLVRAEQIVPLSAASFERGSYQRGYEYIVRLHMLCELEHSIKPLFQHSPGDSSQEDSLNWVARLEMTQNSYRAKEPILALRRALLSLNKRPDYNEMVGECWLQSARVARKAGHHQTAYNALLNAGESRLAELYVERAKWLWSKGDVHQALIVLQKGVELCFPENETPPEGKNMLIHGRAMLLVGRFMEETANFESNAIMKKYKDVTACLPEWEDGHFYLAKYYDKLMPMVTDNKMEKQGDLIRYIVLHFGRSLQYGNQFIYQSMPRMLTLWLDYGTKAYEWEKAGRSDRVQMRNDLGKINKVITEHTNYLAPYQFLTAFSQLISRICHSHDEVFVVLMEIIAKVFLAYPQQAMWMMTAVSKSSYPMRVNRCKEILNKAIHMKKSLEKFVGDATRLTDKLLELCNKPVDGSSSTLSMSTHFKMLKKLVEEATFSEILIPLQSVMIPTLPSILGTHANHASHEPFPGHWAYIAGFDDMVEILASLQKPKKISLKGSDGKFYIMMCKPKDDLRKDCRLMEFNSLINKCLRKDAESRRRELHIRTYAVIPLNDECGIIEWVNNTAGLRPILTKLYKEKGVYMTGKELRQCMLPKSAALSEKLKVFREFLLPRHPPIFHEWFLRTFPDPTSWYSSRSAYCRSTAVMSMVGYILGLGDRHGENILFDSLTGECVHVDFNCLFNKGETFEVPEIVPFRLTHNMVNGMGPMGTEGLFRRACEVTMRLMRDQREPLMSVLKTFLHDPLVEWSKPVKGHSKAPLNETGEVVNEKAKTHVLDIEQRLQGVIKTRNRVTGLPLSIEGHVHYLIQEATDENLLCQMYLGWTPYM
Put plainly: ATR Inhibition Assay (radioactive-phosphate incorporation). Format: biochemical. The note with it: Ki(app); 10 μM ATP, 800 μM target peptide, 5 nM full-length ATR, 25° C. The procedure:
Compounds were screened for their ability to inhibit ATR kinase using a radioactive-phosphate incorporation assay. Assays were carried out in a mixture of 50 mM Tris/HCl (pH 7.5), 10 mM MgCl2 and 1 mM DTT. Final substrate concentrations were 10 μM [γ-33P]ATP (3 mCi 33P ATP/mmol ATP, Perkin Elmer) and 800 μM target peptide ([…] (SEQ. ID NO: 1)).
Assays were carried out at 25° C. in the presence of 5 nM full-length ATR. An assay stock buffer solution was prepared containing all of the reagents listed above, with the exception of ATP and the test compound of interest. 13.5 μL of the stock solution was placed in a 96 well plate followed by addition of 2 μL of DMSO stock containing serial dilutions of the test compound (typically starting from a final concentration of 15 μM with 3-fold serial dilutions) in duplicate (final DMSO concentration 7%). The plate was pre-incubated for 10 minutes at 25° C. and the reaction initiated by addition of 15 μL [γ-33P]ATP (final concentration 10 μM).
The reaction was stopped after 24 hours by the addition of 30 μL 0.1M phosphoric acid containing 2 mM ATP. A multiscreen phosphocellulose filter 96-well plate (Millipore, Cat no. MAPHN0B50) was pretreated with 100 μL 0.2M phosphoric acid prior to the addition of 45 μL of the stopped assay mixture. The plate was washed with […] 0.2M phosphoric acid. After drying, 100 μL Optiphase ‘SuperMix’ liquid scintillation cocktail (Perkin Elmer) was added to the well prior to scintillation counting (1450 Microbeta Liquid Scintillation Counter, Wallac).
After removing mean background values for all of the data points, Ki(app) data were calculated from non-linear regression analysis of the initial rate data using the Prism software package (GraphPad Prism version 3.0cx for Macintosh, GraphPad Software, San Diego Calif., USA).
`Cc1ccc2nc(-c3nc(C(=O)NCC4CCCC4)cnc3N)[nH]c2c1` [II-49, 5-Amino-N-(cyclopentylmethyl)-6-(6-methyl-1H-benzimidazol-2-yl)pyrazine-2-carboxamide]: the Ki was at most 500 nM.

Take `Nc1ncc(O[C@@H]2CC[C@@H](O)C2)nc1-c1nc2ccccc2[nH]1` (relative stereo) [II-36, trans-3-((5-Amino-6-(1H-benzo[d]imidazol-2-yl)pyrazin-2-yl)oxy)cyclopentanol]: the Ki is 500 to 1000 nM.

As to `CC(=O)NCC#Cc1cnc(N)c(-c2nc3ccc(C)cc3[nH]2)n1` [II-88, N-[3-[5-amino-6-(6-methyl-1H-benzimidazol-2-yl)pyrazin-2-yl]prop-2-ynyl]acetamide], the Ki was at most 500 nM.

Consider `Cc1ccc2nc(-c3nc(C(=O)NCC#N)cnc3N)[nH]c2c1` [II-48, 5-Amino-N-(cyanomethyl)-6-(6-methyl-1H-benzimidazol-2-yl)pyrazine-2-carboxamide], for which the Ki is at most 500 nM.

With `Nc1ncc(Oc2ccccc2)nc1C(=O)Nc1ccccc1` [II-17, 3-Amino-6-phenoxy-N-phenyl-pyrazine-2-carboxamide], the Ki was in the range of 500 to 1000 nM.

As for `COc1ccccc1NC(=O)c1nc(Nc2ccccc2)cnc1N` [II-3, 3-Amino-6-anilino-N-(2-methoxyphenyl)pyrazine-2-carboxamide], the Ki was at most 500 nM.

Consider `N#CCNC(=O)c1cnc(N)c(-c2nc3ccccc3[nH]2)n1` [II-75, 5-Amino-6-(1H-benzimidazol-2-yl)-N-(cyanomethyl)pyrazine-2-carboxamide], for which the Ki is at most 500 nM.

On to `COC(=O)CNC(=O)c1cnc(N)c(-c2nc3ccc(C)cc3[nH]2)n1` [II-55, Methyl 2-[[5-amino-6-(6-methyl-1H-benzimidazol-2-yl)pyrazine-2-carbonyl]amino]acetate], for which the Ki is at most 500 nM.

Consider `CC(C)Oc1cnc(N)c(-c2nc3ccccc3[nH]2)n1` [II-13, 3-(1H-Benzimidazol-2-yl)-5-isopropoxy-pyrazin-2-amine], for which the Ki lay in the range of 1000 to 8000 nM.

With `COC(=O)c1cnc(N)c(-c2nc3ccc(C)cc3[nH]2)n1` [II-47, Methyl 5-amino-6-(6-methyl-1H-benzo[d]imidazol-2-yl)pyrazine-2-carboxylate], the Ki is at most 500 nM.

On to `Cc1ccc2nc(-c3nc(C(=O)NCc4ccc(F)cc4)cnc3N)[nH]c2c1` [II-64, 5-Amino-N-[(4-fluorophenyl)methyl]-6-(6-methyl-1H-benzimidazol-2-yl)pyrazine-2-carboxamide], for which the Ki is at most 500 nM.

For `Cc1ccc2nc(-c3nc(C(=O)NCC(=O)N(C)C)cnc3N)[nH]c2c1` [II-61, 5-Amino-N-[2-(dimethylamino)-2-oxo-ethyl]-6-(6-methyl-1H-benzimidazol-2-yl)pyrazine-2-carboxamide], the Ki lay in the range of 1000 to 8000 nM.

As for `Cc1ccc2nc(-c3nc(C(=O)NCCC(F)(F)F)cnc3N)[nH]c2c1` [II-73, 5-Amino-6-(6-methyl-1H-benzimidazol-2-yl)-N-(3,3,3-trifluoropropyl)pyrazine-2-carboxamide], the Ki is 500 to 1000 nM.

With `COc1ccc(CNC(=O)c2cnc(N)c(-c3nc4ccc(C)cc4[nH]3)n2)cc1` [II-65, 5-Amino-N-[(4-methoxyphenyl)methyl]-6-(6-methyl-1H-benzimidazol-2-yl)pyrazine-2-carboxamide], the Ki was at most 500 nM.

On to `Nc1ncc(Nc2cccnc2)nc1C(=O)Nc1ccccc1` [II-5, 3-Amino-N-phenyl-6-(3-pyridylamino)pyrazine-2-carboxamide], for which the Ki was at most 500 nM.

As for `Cc1ccc2nc(-c3nc(C(=O)NCC(C)O)cnc3N)[nH]c2c1` (stereo not drawn) [II-67, 5-Amino-N-(2-hydroxypropyl)-6-(6-methyl-1H-benzimidazol-2-yl)pyrazine-2-carboxamide], the Ki fell in the range of 1000 to 8000 nM.

In the case of `COc1cccc(Oc2cnc(N)c(-c3nc4ccccc4[nH]3)n2)c1` [II-15, 3-(1H-Benzimidazol-2-yl)-5-(3-methoxyphenoxy)pyrazin-2-amine], the Ki fell in the range of 500 to 1000 nM.

As for `Nc1ncc(Nc2ccncc2)nc1C(=O)Nc1ccccc1` [II-6, 3-Amino-N-phenyl-6-(4-pyridylamino)pyrazine-2-carboxamide], the Ki is at most 500 nM.

On to `Nc1ncc(C#CCO)nc1-c1nnc(-c2ccccc2)o1` [II-90, 3-[5-amino-6-(5-phenyl-1,3,4-oxadiazol-2-yl)pyrazin-2-yl]prop-2-yn-1-ol], for which the Ki was 1000 to 8000 nM.

With `Cc1ccc2nc(-c3nc(/C=C/Cc4ccccc4)cnc3N)[nH]c2c1`, the Ki was 1000 to 8000 nM.

Turning to `C/C=C/c1cnc(N)c(-c2nc3ccc(C)cc3[nH]2)n1` [II-78, 3-(6-Methyl-1H-benzimidazol-2-yl)-5-[(E)-prop-1-enyl]pyrazin-2-amine], the Ki was in the range of 500 to 1000 nM.

Take `Nc1ncc(Nc2ccccc2)nc1C(=O)Nc1ccccc1` [II-1, 3-Amino-6-anilino-N-phenyl-pyrazine-2-carboxamide]: the Ki was at most 500 nM.

For `Nc1ncc(OCCO)nc1-c1nc2ccccc2[nH]1` [II-14, 2-[5-Amino-6-(1H-benzimidazol-2-yl)pyrazin-2-yl]oxyethanol], the Ki lay within 1000 to 8000 nM.

`Cc1ccc2nc(-c3nc(C(=O)NCCN4CCCC4)cnc3N)[nH]c2c1` [II-51, 5-Amino-6-(6-methyl-1H-benzimidazol-2-yl)-N-(2-pyrrolidin-1-ylethyl)pyrazine-2-carboxamide]: the Ki lay within 500 to 1000 nM.

Regarding `CC(=O)Nc1cnc(N)c(-c2nc3ccccc3[nH]2)n1` [II-91, N-[5-Amino-6-(1H-benzimidazol-2-yl)pyrazin-2-yl]acetamide], the Ki was at most 500 nM.

For the compound `Cc1ccc2nc(-c3nc(C#CCNS(C)(=O)=O)cnc3N)[nH]c2c1` [II-87, N-[3-[5-Amino-6-(6-methyl-1H-benzimidazol-2-yl)pyrazin-2-yl]prop-2-ynyl]methanesulfonamide], the Ki lay within 500 to 1000 nM.

Turning to `COCCNC(=O)c1cnc(N)c(-c2nc3ccc(C)cc3[nH]2)n1` [II-71, 5-Amino-N-(2-methoxyethyl)-6-(6-methyl-1H-benzimidazol-2-yl)pyrazine-2-carboxamide], the Ki lay within 1000 to 8000 nM.

As to `CC(=O)Nc1ccc(Oc2cnc(N)c(-c3nc4ccc(C)cc4[nH]3)n2)cc1` [II-18, N-[4-[5-Amino-6-(6-methyl-1H-benzimidazol-2-yl)pyrazin-2-yl]oxyphenyl]acetamide], the Ki was in the range of 1000 to 8000 nM.

Regarding `Cc1ccc2nc(-c3nc(C(=O)N[C@@H](C)c4ccccc4)cnc3N)[nH]c2c1` [II-59, 5-Amino-6-(6-methyl-1H-benzimidazol-2-yl)-N-[(1S)-1-phenylethyl]pyrazine-2-carboxamide], the Ki fell in the range of 500 to 1000 nM.

Consider `Cc1ccc2nc(-c3nc(Oc4ccc(C(=O)O)cc4)cnc3N)[nH]c2c1` [II-26, 4-[5-Amino-6-(6-methyl-1H-benzimidazol-2-yl)pyrazin-2-yl]oxybenzoic acid], for which the Ki was at most 500 nM.

As for `Cc1ccc2nc(-c3nc(OC4CCOC4)cnc3N)[nH]c2c1` (stereo not drawn) [II-32, 3-(6-Methyl-1H-benzimidazol-2-yl)-5-tetrahydrofuran-3-yloxy-pyrazin-2-amine], the Ki was in the range of 500 to 1000 nM.

For the compound `COC/C=C/c1cnc(N)c(-c2nc3ccc(C)cc3[nH]2)n1` [II-80, 5-[(E)-3-Methoxyprop-1-enyl]-3-(6-methyl-1H-benzimidazol-2-yl)pyrazin-2-amine], the Ki is 1000 to 8000 nM.

For `Nc1ncc(O[C@@H]2CC[C@H](O)C2)nc1-c1nc2ccccc2[nH]1` (relative stereo) [II-35, cis-3-((5-Amino-6-(1H-benzo[d]imidazol-2-yl)pyrazin-2-yl)oxy)cyclopentanol], the Ki fell in the range of 1000 to 8000 nM.

For `Cc1ccc2nc(-c3nc(C(=O)N(C)Cc4ccccc4)cnc3N)[nH]c2c1` [II-58, 5-Amino-N-benzyl-N-methyl-6-(6-methyl-1H-benzimidazol-2-yl)pyrazine-2-carboxamide], the Ki was 500 to 1000 nM.

For the compound `Cc1ccc2nc(-c3nc(C#CCO)cnc3N)[nH]c2c1` [II-82, 3-[5-Amino-6-(6-methyl-1H-benzimidazol-2-yl)pyrazin-2-yl]prop-2-yn-1-ol], the Ki lay in the range of 500 to 1000 nM.

The same assay, now with this note: at 15 uM compound; read-out: percent inhibition against ATR.
For the compound `COc1ccc(Oc2cnc(N)c(-c3nc4ccc(C)cc4[nH]3)n2)cc1` [II-19, 5-(4-Methoxyphenoxy)-3-(6-methyl-1H-benzimidazol-2-yl)pyrazin-2-amine], the inhibition at 15 µM fell in the range of 25 to 45%.

Turning to `Cc1ccc2nc(-c3nc(C(=O)NC4CCCC4)cnc3N)[nH]c2c1` [II-72, 5-Amino-N-cyclopentyl-6-(6-methyl-1H-benzimidazol-2-yl)pyrazine-2-carboxamide], the inhibition at 15 µM fell in the range of 15 to 24%.

As for `Cc1ccc2nc(-c3nc(Oc4cccc(C#N)c4)cnc3N)[nH]c2c1` [II-31, 3-[5-Amino-6-(6-methyl-1H-benzimidazol-2-yl)pyrazin-2-yl]oxybenzonitrile], the inhibition at 15 µM lay within 15 to 24%.

For `COC(=O)c1ccc(Oc2cnc(N)c(-c3nc4ccc(C)cc4[nH]3)n2)cc1` [II-25, Methyl 4-[5-amino-6-(6-methyl-1H-benzimidazol-2-yl)pyrazin-2-yl]oxybenzoate], the inhibition at 15 µM is 10%.
